Laboratory results: ChEMBL document CHEMBL1150266, “Design and synthesis of conformationally constrained glucagon-like peptide-1 derivatives with increased plasma stability and prolonged in vivo activity” (J Med Chem, 2008)
Where a SMILES comes first, the peptide text is derived from it. Bridges are numbered along the chain shown (N, C = ends). [ ]: non-standard residue; d: D form. Phe(4-COOH) = N[C@@H](Cc1ccc(C(=O)O)cc1)C(=O)O

Experiments:
[1] = target: T1, Glucagon-like peptide 1 receptor (Homo sapiens, UniProt P43220); test: Displacement of [125I]GLP1 from human GLP1R expressed in CHOK1 cells; assay type: cell-based, CHO-K1
Plasma = test: Stability in human plasma at 1000 ng/mL at 37 degC; assay type: ADME, cell-free
[2] = target: T1, Glucagon-like peptide 1 receptor; test: Agonist activity at human GLP1R expressed in CHO cells assessed as increase in cAMP level by cAMP-response element/luciferase activation assay; assay type: functional, cell-based

T1 sequence (P43220 whole entry): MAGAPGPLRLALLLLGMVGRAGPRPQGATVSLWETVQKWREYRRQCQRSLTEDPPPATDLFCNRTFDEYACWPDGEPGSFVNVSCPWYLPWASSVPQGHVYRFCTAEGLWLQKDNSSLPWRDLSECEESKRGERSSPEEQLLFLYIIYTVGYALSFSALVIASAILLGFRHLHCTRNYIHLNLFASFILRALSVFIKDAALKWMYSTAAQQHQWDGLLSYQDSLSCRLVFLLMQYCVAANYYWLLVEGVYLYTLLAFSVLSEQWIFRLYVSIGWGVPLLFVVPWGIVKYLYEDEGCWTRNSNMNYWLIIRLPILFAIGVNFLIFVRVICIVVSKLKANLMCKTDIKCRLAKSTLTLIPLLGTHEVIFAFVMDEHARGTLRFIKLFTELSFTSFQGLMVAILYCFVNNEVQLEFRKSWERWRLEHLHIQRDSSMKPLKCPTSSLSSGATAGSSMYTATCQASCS

| SMILES | IC50 [1] [nM] | Stability (Plasma) | EC50 [2] [nM] |
| --- | --- | --- | --- |
| CC[C@H](C)[C@H](NC(=O)[C@H](Cc1ccccc1)NC(=O)[C@H](CCC(=O)O)NC(=O)[C@H](CCCCN)NC(=O)[C@H](C)NC(=O)[C@H](C)NC(=O)[C@H](CCC(N)=O)NC(=O)C(C)(C)NC(=O)[C@H](CCC(=O)O)NC(=O)[C@H](CC(C)C)NC(=O)[C@H](Cc1ccc(O)cc1)NC(=O)[C@H](CO)NC(=O)[C@H](CO)NC(=O)[C@@H](NC(=O)[C@H](CC(=O)O)NC(=O)[C@H](CO)NC(=O)[C@@H](NC(=O)[C@H](Cc1ccccc1)NC(=O)[C@@H](NC(=O)CNC(=O)[C@H](CCC(=O)O)NC(=O)CNC(=O)[C@@H](N)Cc1c[nH]cn1)[C@@H](C)O)[C@@H](C)O)C(C)C)C(=O)N[C@@H](C)C(=O)N[C@@H](Cc1c[nH]c2ccccc12)C(=O)N[C@@H](CC(C)C)C(=O)N[C@H](C(=O)N[C@@H](CCCCN)C(=O)NCC(=O)N[C@@H](CCCNC(=N)N)C(=O)NCC(N)=O)C(C)C | 2.9 | Stable | – |
| CC[C@H](C)[C@@H]1NC(=O)[C@H](Cc2ccccc2)NC(=O)[C@H](CCC(=O)O)NC(=O)[C@@H](NC(=O)[C@H](C)NC(=O)[C@H](C)NC(=O)[C@H](CCC(N)=O)NC(=O)CNC(=O)[C@H](CCC(=O)O)NC(=O)[C@H](CC(C)C)NC(=O)[C@H](Cc2ccc(O)cc2)NC(=O)[C@H](CO)NC(=O)[C@H](CO)NC(=O)[C@@H](NC(=O)[C@H](CC(=O)O)NC(=O)[C@H](CO)NC(=O)[C@@H](NC(=O)[C@H](Cc2ccccc2)NC(=O)[C@@H](NC(=O)CNC(=O)[C@H](CCC(=O)O)NC(=O)CNC(=O)[C@@H](N)Cc2cnc[nH]2)[C@@H](C)O)[C@@H](C)O)C(C)C)CCC(=O)NCCCC[C@@H](C(=O)N[C@@H](Cc2c[nH]c3ccccc23)C(=O)N[C@@H](CC(C)C)C(=O)N[C@H](C(=O)N[C@@H](CCCCN)C(=O)NCC(=O)N[C@@H](CCCNC(=N)N)C(=O)NCC(N)=O)C(C)C)NC1=O | 16 | – | 0.024 |
| CC[C@H](C)[C@H](NC(=O)[C@H](Cc1ccccc1)NC(=O)[C@H](CCC(=O)O)NC(=O)[C@@H]1CCCCNC(=O)CC[C@H](NC(=O)[C@H](CCC(=O)O)NC(=O)[C@H](CC(C)C)NC(=O)[C@H](Cc2ccc(O)cc2)NC(=O)[C@H](CO)NC(=O)[C@H](CO)NC(=O)[C@@H](NC(=O)[C@H](CC(=O)O)NC(=O)[C@H](CO)NC(=O)[C@@H](NC(=O)[C@H](Cc2ccccc2)NC(=O)[C@@H](NC(=O)CNC(=O)[C@H](CCC(=O)O)NC(=O)CNC(=O)[C@@H](N)Cc2c[nH]cn2)[C@@H](C)O)[C@@H](C)O)C(C)C)CC(=O)N[C@@H](CCC(N)=O)C(=O)N[C@@H](C)C(=O)N[C@@H](C)C(=O)N1)C(=O)N[C@@H](C)C(=O)N[C@@H](Cc1c[nH]c2ccccc12)C(=O)N[C@@H](CC(C)C)C(=O)N[C@H](C(=O)N[C@@H](CCCCN)C(=O)NCC(=O)N[C@@H](CCCNC(=N)N)C(=O)NCC(N)=O)C(C)C | > 500 | – | 1.8 |
| CC[C@H](C)[C@H](NC(=O)[C@H](Cc1ccccc1)NC(=O)[C@H](CCC(=O)O)NC(=O)[C@@H]1CCCCNC(=O)CCC[C@H](NC(=O)[C@H](CCC(=O)O)NC(=O)[C@H](CC(C)C)NC(=O)[C@H](Cc2ccc(O)cc2)NC(=O)[C@H](CO)NC(=O)[C@H](CO)NC(=O)[C@@H](NC(=O)[C@H](CC(=O)O)NC(=O)[C@H](CO)NC(=O)[C@@H](NC(=O)[C@H](Cc2ccccc2)NC(=O)[C@@H](NC(=O)CNC(=O)[C@H](CCC(=O)O)NC(=O)CNC(=O)[C@@H](N)Cc2c[nH]cn2)[C@@H](C)O)[C@@H](C)O)C(C)C)C(=O)N[C@@H](CCC(N)=O)C(=O)N[C@@H](C)C(=O)N[C@@H](C)C(=O)N1)C(=O)N[C@@H](C)C(=O)N[C@@H](Cc1c[nH]c2ccccc12)C(=O)N[C@@H](CC(C)C)C(=O)N[C@H](C(=O)N[C@@H](CCCCN)C(=O)NCC(=O)N[C@@H](CCCNC(=N)N)C(=O)NCC(N)=O)C(C)C | 6.2 | – | 0.004 |
| CC[C@H](C)[C@H](NC(=O)[C@H](Cc1ccccc1)NC(=O)[C@H](CCC(=O)O)NC(=O)[C@H](CCCCN)NC(=O)[C@H](C)NC(=O)[C@H](C)NC(=O)[C@H](CCC(N)=O)NC(=O)[C@@H]1CCCCNC(=O)CC[C@H](NC(=O)[C@H](CO)NC(=O)[C@@H](NC(=O)[C@H](CC(=O)O)NC(=O)[C@H](CO)NC(=O)[C@@H](NC(=O)[C@H](Cc2ccccc2)NC(=O)[C@@H](NC(=O)CNC(=O)[C@H](CCC(=O)O)NC(=O)CNC(=O)[C@@H](N)Cc2cnc[nH]2)[C@@H](C)O)[C@@H](C)O)C(C)C)C(=O)N[C@@H](Cc2ccc(O)cc2)C(=O)N[C@@H](CC(C)C)C(=O)N[C@@H](CCC(=O)O)C(=O)N1)C(=O)N[C@@H](C)C(=O)N[C@@H](Cc1c[nH]c2ccccc12)C(=O)N[C@@H](CC(C)C)C(=O)N[C@H](C(=O)N[C@@H](CCCCN)C(=O)NCC(=O)N[C@@H](CCCNC(=N)N)C(=O)NCC(N)=O)C(C)C (H-HGEGTFTSDVSEYLEKQAAKEFIAWLVKGRG-NH2; lactam 12-16) | 3.6 | Stable | 0.006 |
| CC[C@H](C)[C@H](NC(=O)[C@H](Cc1ccccc1)NC(=O)[C@H](CCC(=O)O)NC(=O)[C@H](CCCCN)NC(=O)[C@H](C)NC(=O)[C@H](C)NC(=O)[C@@H]1CCCCNC(=O)CC[C@H](NC(=O)[C@H](CO)NC(=O)[C@H](CO)NC(=O)[C@@H](NC(=O)[C@H](CC(=O)O)NC(=O)[C@H](CO)NC(=O)[C@@H](NC(=O)[C@H](Cc2ccccc2)NC(=O)[C@@H](NC(=O)CNC(=O)[C@H](CCC(=O)O)NC(=O)CNC(=O)[C@@H](N)Cc2c[nH]cn2)[C@@H](C)O)[C@@H](C)O)C(C)C)C(=O)N[C@@H](CC(C)C)C(=O)N[C@@H](CCC(=O)O)C(=O)NCC(=O)N1)C(=O)N[C@@H](C)C(=O)N[C@@H](Cc1c[nH]c2ccccc12)C(=O)N[C@@H](CC(C)C)C(=O)N[C@H](C(=O)N[C@@H](CCCCN)C(=O)NCC(=O)N[C@@H](CCCNC(=N)N)C(=O)NCC(N)=O)C(C)C (H-HGEGTFTSDVSSELEGKAAKEFIAWLVKGRG-NH2; lactam 13-17) | 17 | – | 0.077 |
| CC[C@H](C)[C@H](NC(=O)[C@H](Cc1ccccc1)NC(=O)[C@H](CCC(=O)O)NC(=O)[C@@H]1CCCCNC(=O)C[C@H](NC(=O)[C@H](CCC(=O)O)NC(=O)[C@H](CC(C)C)NC(=O)[C@H](Cc2ccc(O)cc2)NC(=O)[C@H](CO)NC(=O)[C@H](CO)NC(=O)[C@@H](NC(=O)[C@H](CC(=O)O)NC(=O)[C@H](CO)NC(=O)[C@@H](NC(=O)[C@H](Cc2ccccc2)NC(=O)[C@@H](NC(=O)CNC(=O)[C@H](CCC(=O)O)NC(=O)CNC(=O)[C@@H](N)Cc2c[nH]cn2)[C@@H](C)O)[C@@H](C)O)C(C)C)C(=O)N[C@@H](CCC(N)=O)C(=O)N[C@@H](C)C(=O)N[C@@H](C)C(=O)N1)C(=O)N[C@@H](C)C(=O)N[C@@H](Cc1c[nH]c2ccccc12)C(=O)N[C@@H](CC(C)C)C(=O)N[C@H](C(=O)N[C@@H](CCCCN)C(=O)NCC(=O)N[C@@H](CCCNC(=N)N)C(=O)NCC(N)=O)C(C)C (H-HGEGTFTSDVSSYLEDQAAKEFIAWLVKGRG-NH2; lactam 16-20) | 64 | – | 0.14 |
| CC(C)C[C@H](NC(=O)[C@H](Cc1ccc(O)cc1)NC(=O)[C@H](CO)NC(=O)[C@H](CO)NC(=O)[C@@H](NC(=O)[C@H](CC(=O)O)NC(=O)[C@H](CO)NC(=O)[C@@H](NC(=O)[C@H](Cc1ccccc1)NC(=O)[C@@H](NC(=O)CNC(=O)[C@H](CCC(=O)O)NC(=O)CNC(=O)[C@@H](N)Cc1c[nH]cn1)[C@@H](C)O)[C@@H](C)O)C(C)C)C(=O)N[C@@H](CCC(=O)O)C(=O)NCC(=O)N[C@@H](CCC(N)=O)C(=O)N[C@@H](C)C(=O)N[C@H]1CCC(=O)NCCCC[C@@H](C(=O)N[C@@H](C)C(=O)N[C@@H](Cc2c[nH]c3ccccc23)C(=O)N[C@@H](CC(C)C)C(=O)N[C@H](C(=O)N[C@@H](CCCCN)C(=O)NCC(=O)N[C@@H](CCCNC(=N)N)C(=O)NCC(N)=O)C(C)C)NC(=O)[C@H](Cc2ccccc2)NC(=O)[C@H](CCC(=O)O)NC(=O)[C@H](CCCCN)NC1=O (H-HGEGTFTSDVSSYLEGQAEKEFKAWLVKGRG-NH2; lactam 19-23) | > 1000 | – | 15 |
| CC[C@H](C)[C@H](NC(=O)[C@H](Cc1ccccc1)NC(=O)[C@H](CCC(=O)O)NC(=O)[C@@H]1CCC(=O)NCCCC[C@H](NC(=O)[C@H](CCC(=O)O)NC(=O)[C@H](CC(C)C)NC(=O)[C@H](Cc2ccc(O)cc2)NC(=O)[C@H](CO)NC(=O)[C@H](CO)NC(=O)[C@@H](NC(=O)[C@H](CC(=O)O)NC(=O)[C@H](CO)NC(=O)[C@@H](NC(=O)[C@H](Cc2ccccc2)NC(=O)[C@@H](NC(=O)CNC(=O)[C@H](CCC(=O)O)NC(=O)CNC(=O)[C@@H](N)Cc2c[nH]cn2)[C@@H](C)O)[C@@H](C)O)C(C)C)C(=O)N[C@@H](CCC(N)=O)C(=O)N[C@@H](C)C(=O)N[C@@H](C)C(=O)N1)C(=O)N[C@@H](C)C(=O)N[C@@H](Cc1c[nH]c2ccccc12)C(=O)N[C@@H](CC(C)C)C(=O)N[C@H](C(=O)N[C@@H](CCCCN)C(=O)NCC(=O)N[C@@H](CCCNC(=N)N)C(=O)NCC(N)=O)C(C)C (H-HGEGTFTSDVSSYLEKQAAEEFIAWLVKGRG-NH2; lactam 16-20) | 2.7 | – | 0.008 |
| CC[C@H](C)[C@H](NC(=O)[C@H](Cc1ccccc1)NC(=O)[C@H](CCC(=O)O)NC(=O)[C@@H]1CCCCNC(=O)c2ccc(cc2)C[C@H](NC(=O)[C@H](CO)NC(=O)[C@H](CO)NC(=O)[C@@H](NC(=O)[C@H](CC(=O)O)NC(=O)[C@H](CO)NC(=O)[C@@H](NC(=O)[C@H](Cc2ccccc2)NC(=O)[C@@H](NC(=O)CNC(=O)[C@H](CCC(=O)O)NC(=O)CNC(=O)[C@@H](N)Cc2c[nH]cn2)[C@@H](C)O)[C@@H](C)O)C(C)C)C(=O)N[C@@H](CC(C)C)C(=O)N[C@@H](CCC(=O)O)C(=O)NCC(=O)N[C@@H](CCC(N)=O)C(=O)N[C@@H](C)C(=O)N[C@@H](C)C(=O)N1)C(=O)N[C@@H](C)C(=O)N[C@@H](Cc1c[nH]c2ccccc12)C(=O)N[C@@H](CC(C)C)C(=O)N[C@H](C(=O)N[C@@H](CCCCN)C(=O)NCC(=O)N[C@@H](CCCNC(=N)N)C(=O)NCC(N)=O)C(C)C (H-HGEGTFTSDVSS[Phe(4-COOH)]LEGQAAKEFIAWLVKGRG-NH2; lactam 13-20) | 2000 | – | 9 |
